# Assay results taken from patent publication US20100160445A1, “Synergistic Mixtures of OPP and DGH” (priority 2002, published 2010).
# Counter-ions that a name gives are not always drawn.
# Test system: wild strain bacteria isolated from previously contaminated systems
# Experiment: In-Can Preservation Test of paint samples; for Microbial growth, 1st Inoculation, 1st sub-column: key: 4 = Heavy Microbial Growth; 3 = Moderate Microbial Growth; 2 = Slight Microbial Growth; 1 = Trace Microbial Growth; 0 = No Microbial Growth; for Microbial growth, 1st Inoculation, 2nd sub-column: key: 4 = Heavy Microbial Growth; 3 = Moderate Microbial Growth; 2 = Slight Microbial Growth; 1 = Trace Microbial Growth; 0 = No Microbial Growth; for Microbial growth, 2nd Inoculation, 1st sub-column: key: 4 = Heavy Microbial Growth; 3 = Moderate Microbial Growth; 2 = Slight Microbial Growth; 1 = Trace Microbial Growth; 0 = No Microbial Growth; for Microbial growth, 2nd Inoculation, 2nd sub-column: key: 4 = Heavy Microbial Growth; 3 = Moderate Microbial Growth; 2 = Slight Microbial Growth; 1 = Trace Microbial Growth; 0 = No Microbial Growth
# Type: cell-based
# Settings: for Effective Preservative (ppm): two inoculation challenge
# Description: Preservation Testing was performed on the three paint samples: Acrylic Flat, Acrylic and Vinyl Acrylic. Each sample was treated with various levels OPP, DGH individually and a mixture of OPP and DGH. All samples were then inoculated with wild strain bacteria isolated from previously contaminated systems. Following the initial inoculation, the samples were reinoculated on day 7. This testing scenario best simulates what happens in a “real world” situation. […]
# [1] = Table 2 paint (Acrylic Flat / Vinyl Acrylic Flat), 250 ppm
# [2] = Table 2 paint (Acrylic Flat / Vinyl Acrylic Flat), 500 ppm
# [3] = Table 2 paint (Acrylic Flat / Vinyl Acrylic Flat), 750 ppm
# [4] = Table 2 paint (Acrylic Flat / Vinyl Acrylic Flat), 1000 ppm
# [5] = Table 2 paint (Acrylic Flat / Vinyl Acrylic Flat), 1500 ppm
# [6] = Table 2 paint (Acrylic Flat / Vinyl Acrylic Flat), 2000 ppm
# [7] = Table 3 paint (Vinyl Acrylic Flat / Acrylic Flat), 250 ppm
# [8] = Table 3 paint (Vinyl Acrylic Flat / Acrylic Flat), 500 ppm
# [9] = Table 3 paint (Vinyl Acrylic Flat / Acrylic Flat), 750 ppm
# [10] = Table 3 paint (Vinyl Acrylic Flat / Acrylic Flat), 1000 ppm
# [11] = Table 3 paint (Vinyl Acrylic Flat / Acrylic Flat), 1500 ppm
# [12] = Table 3 paint (Vinyl Acrylic Flat / Acrylic Flat), 2000 ppm
compound,measurement,setting,value
"CCCCCCCCCCCCNC(=N)N [DGH, Dodecylguanidine Hydrochloride]",Effective Preservative (ppm),Acrylic Flat paint,1500 ppm
same,"Microbial growth, 1st Inoculation, 1st sub-column","Acrylic paint, 250 ppm",3
same,"Microbial growth, 1st Inoculation, 2nd sub-column","Acrylic paint, 250 ppm",3
same,"Microbial growth, 2nd Inoculation, 1st sub-column","Acrylic paint, 250 ppm",3
same,"Microbial growth, 2nd Inoculation, 2nd sub-column","Acrylic paint, 250 ppm",3
same,"Microbial growth, 1st Inoculation, 1st sub-column","Acrylic paint, 500 ppm",3
same,"Microbial growth, 1st Inoculation, 2nd sub-column","Acrylic paint, 500 ppm",3
same,"Microbial growth, 2nd Inoculation, 1st sub-column","Acrylic paint, 500 ppm",2
same,"Microbial growth, 2nd Inoculation, 2nd sub-column","Acrylic paint, 500 ppm",3
same,"Microbial growth, 1st Inoculation, 1st sub-column","Acrylic paint, 750 ppm",3
same,"Microbial growth, 1st Inoculation, 2nd sub-column","Acrylic paint, 750 ppm",2
same,"Microbial growth, 2nd Inoculation, 1st sub-column","Acrylic paint, 750 ppm",2
same,"Microbial growth, 2nd Inoculation, 2nd sub-column","Acrylic paint, 750 ppm",2
same,"Microbial growth, 1st Inoculation, 1st sub-column","Acrylic paint, 1000 ppm",3
same,"Microbial growth, 1st Inoculation, 2nd sub-column","Acrylic paint, 1000 ppm",2
same,"Microbial growth, 2nd Inoculation, 1st sub-column","Acrylic paint, 1000 ppm",1
same,"Microbial growth, 2nd Inoculation, 2nd sub-column","Acrylic paint, 1000 ppm",1
same,"Microbial growth, 1st Inoculation, 1st sub-column","Acrylic paint, 1500 ppm",3
same,"Microbial growth, 1st Inoculation, 2nd sub-column","Acrylic paint, 1500 ppm",0
same,"Microbial growth, 2nd Inoculation, 1st sub-column","Acrylic paint, 1500 ppm",1
same,"Microbial growth, 2nd Inoculation, 2nd sub-column","Acrylic paint, 1500 ppm",0
same,"Microbial growth, 1st Inoculation, 1st sub-column","Acrylic paint, 2000 ppm",3
same,"Microbial growth, 1st Inoculation, 2nd sub-column","Acrylic paint, 2000 ppm",0
same,"Microbial growth, 2nd Inoculation, 1st sub-column","Acrylic paint, 2000 ppm",1
same,"Microbial growth, 2nd Inoculation, 2nd sub-column","Acrylic paint, 2000 ppm",0
same,Effective Preservative (ppm),Acrylic paint,2000 ppm
same,"Microbial growth, 1st Inoculation, 1st sub-column",[1],3
same,"Microbial growth, 1st Inoculation, 2nd sub-column",[1],2
same,"Microbial growth, 2nd Inoculation, 1st sub-column",[1],3
same,"Microbial growth, 2nd Inoculation, 2nd sub-column",[1],2
same,"Microbial growth, 1st Inoculation, 1st sub-column",[2],3
same,"Microbial growth, 1st Inoculation, 2nd sub-column",[2],2
same,"Microbial growth, 2nd Inoculation, 1st sub-column",[2],2
same,"Microbial growth, 2nd Inoculation, 2nd sub-column",[2],2
same,"Microbial growth, 1st Inoculation, 1st sub-column",[3],3
same,"Microbial growth, 1st Inoculation, 2nd sub-column",[3],2
same,"Microbial growth, 2nd Inoculation, 1st sub-column",[3],2
same,"Microbial growth, 2nd Inoculation, 2nd sub-column",[3],2
same,"Microbial growth, 1st Inoculation, 1st sub-column",[4],3
same,"Microbial growth, 1st Inoculation, 2nd sub-column",[4],2
same,"Microbial growth, 2nd Inoculation, 1st sub-column",[4],3
same,"Microbial growth, 2nd Inoculation, 2nd sub-column",[4],2
same,"Microbial growth, 1st Inoculation, 1st sub-column",[5],3
same,"Microbial growth, 1st Inoculation, 2nd sub-column",[5],2
same,"Microbial growth, 2nd Inoculation, 1st sub-column",[5],3
same,"Microbial growth, 2nd Inoculation, 2nd sub-column",[5],1
same,"Microbial growth, 1st Inoculation, 1st sub-column",[6],3
same,"Microbial growth, 1st Inoculation, 2nd sub-column",[6],0
same,"Microbial growth, 2nd Inoculation, 1st sub-column",[6],1
same,"Microbial growth, 2nd Inoculation, 2nd sub-column",[6],0
same,"Microbial growth, 1st Inoculation, 1st sub-column",[7],3
same,"Microbial growth, 1st Inoculation, 2nd sub-column",[7],2
same,"Microbial growth, 2nd Inoculation, 1st sub-column",[7],3
same,"Microbial growth, 2nd Inoculation, 2nd sub-column",[7],2
same,"Microbial growth, 1st Inoculation, 1st sub-column",[8],2
same,"Microbial growth, 1st Inoculation, 2nd sub-column",[8],2
same,"Microbial growth, 2nd Inoculation, 1st sub-column",[8],3
same,"Microbial growth, 2nd Inoculation, 2nd sub-column",[8],1
same,"Microbial growth, 1st Inoculation, 1st sub-column",[9],2
same,"Microbial growth, 1st Inoculation, 2nd sub-column",[9],2
same,"Microbial growth, 2nd Inoculation, 1st sub-column",[9],3
same,"Microbial growth, 2nd Inoculation, 2nd sub-column",[9],1
same,"Microbial growth, 1st Inoculation, 1st sub-column",[10],2
same,"Microbial growth, 1st Inoculation, 2nd sub-column",[10],2
same,"Microbial growth, 2nd Inoculation, 1st sub-column",[10],3
same,"Microbial growth, 2nd Inoculation, 2nd sub-column",[10],1
same,"Microbial growth, 1st Inoculation, 1st sub-column",[11],2
same,"Microbial growth, 1st Inoculation, 2nd sub-column",[11],2
same,"Microbial growth, 2nd Inoculation, 1st sub-column",[11],2
same,"Microbial growth, 2nd Inoculation, 2nd sub-column",[11],2
same,"Microbial growth, 1st Inoculation, 1st sub-column",[12],2
same,"Microbial growth, 1st Inoculation, 2nd sub-column",[12],2
same,"Microbial growth, 2nd Inoculation, 1st sub-column",[12],2
same,"Microbial growth, 2nd Inoculation, 2nd sub-column",[12],2
same,Effective Preservative (ppm),Vinyl Acrylic Flat paint,>2000 ppm
